Key:
Assay type in all cases: cell-based
[1] = tested on: cortical primary neurons (from C57BL6/J mice); test: Caspase-3 activity (neuronal apoptosis) after excitotoxic NMDA stimulus; settings: 100 μM NMDA 10 min, then 24 h with compound 0.1, 1, 5 μM (FIG. 6)
Method: (§1) For NMDA receptors activation, neurons at 8 days in vitro were incubated with 100 μM NMDA for 10 minutes. Neurons were then washed and further incubated for 24 hours in culture medium with DMSO only (DMSO empty bar), DMSO and NMDA (DMSO filled bar) and with increasing quantities of GKK1032C, GKK1032, Pyrrocidine B, CL0661, CL0665, CL0667 and CL0670. Concentrations of 0.1 μM, 1 μM, 5 μM. *: pvalue <0.05 vs. DMSO+NMDA (student's test).
(§2) Experiments were performed in […] cortical primary neurons, obtained as was previously described (Herrero-Mendez A. et al., Nat. Cell. Biol. 11:747-752, 2009). After 7 or 8 days in B27-MAO culture, neurons (from C57BL6/J mice) were incubated in the presence of N-methyl-D-aspartate (NMDA, a H2O2 production promoter; 100 μM) for 10 minutes, followed by a PBS washing step and submitted to a 24-hour B27 incubation step in the absence (DMSO) or presence of increasing amounts of GKK1032C, GKK1032, Pyrrocidine B, Pyrrocidine A, CL0661, CL0665, CL0667 and CL0670 (0.1 μM, 1 μM and 5 μM). B27-MAO stands for Neurobasal medium, supplemented with B27 supplement in the absence of antioxidants (minus antioxidants, MAO).
Neuronal apoptosis was determined by measuring caspase-3 activity (Veas-Perez de Tudela et al. Sci Rep 5:18180; doi:10.1038/srep18180 (2015).
(§3) The data are presented as the mean values±standard deviation of the mean from n=3.

[2] = tested on: cortical primary neurons (from C57BL6/J mice); test: H2O2 production in neurons after excitotoxic NMDA stimulus (Amplex Red); settings: 100 μM NMDA 10 min, then compound 0.1, 1, 5 μM (FIG. 5)
Method: as §1, with “4” for “24”, “Pyrrocidine A, Pyrrocidine” for “Pyrrocidine”, “CL0661,” for “CL0661, CL0665,”, “p-value” for “pvalue”
as §2
The release of H2O2 was measured using the fluorescent method Amplex© Red hydrogen peroxide/peroxidase assay kit (Invitrogen, catalog number A22188) using a multiwell fluorescence reader (Varioskan, Thermo Scientific).
as §3

[3] = tested on: rat cortical primary neurons; test: H2O2 formation in cortical primary neurons treated with L-BSO and rotenone (Amplex Red); settings: compound 1 μg/ml together with L-BSO and rotenone for 6 h, washed, recorded 2 h (FIG. 2)
Method: The data are presented as the mean values±[…] of the mean (SEM) from n=6 (i.e., 6 independent wells measured independently).
After this period, cells were again washed and determined the rate of H2O2 production during the next 2 h.

| SMILES | neuronal apoptosis (caspase-3 activity) after NMDA [1] | H2O2 production in neuron cells after NMDA [2] | rate of H2O2 formation [3] |
| --- | --- | --- | --- |
| CC1=CC2(C)C(C)O/C3=C4\C(=O)NC(=O)C4Cc4ccc(cc4)OC4C(C32)C1C1(C)CC(C)CC(C)C41 (stereo not drawn) [CL0665] | effective in protecting neuron cells against apoptosis | – | – |
| C=C[C@@H]1C=C(C)[C@H]2[C@@H]3[C@H](Oc4ccc(cc4)C[C@@]4(O)C=C(C(=O)N4)C(=O)[C@@H]13)[C@@H]1[C@@H](C)C[C@@H](C)C[C@]12C [Pyrrocidine A, reference compound] | – | successful in preventing H2O2 from being produced | significantly impaired |
| C=CC1(C)C=C(C)C2C3C(Oc4ccc(cc4)CC45OC4(C(=O)NC5=O)C(=O)C31)C1C(C)CC(C)CC21C (stereo not drawn) [CL0661] | effective in protecting neuron cells against apoptosis | successful in preventing H2O2 from being produced | – |
| C=C[C@@H]1C=C(C)[C@H]2[C@@H]3[C@H](Oc4ccc(cc4)C[C@@]4(O)C[C@H](C(=O)N4)C(=O)[C@@H]13)[C@@H]1[C@@H](C)C[C@@H](C)C[C@]12C [Pyrrocidine B, reference compound] | effective in protecting neuron cells against apoptosis | successful in preventing H2O2 from being produced | – |
| C=CC1(C)C=C(C)C2C3C(Oc4ccc(cc4)CC4C(=O)N(CC#N)C(=O)C4C(=O)C31)C1C(C)CC(C)CC21C (stereo not drawn) [CL0667] | effective in protecting neuron cells against apoptosis | successful in preventing H2O2 from being produced | – |
| C=C[C@@]1(C)C=C(C)C2C3[C@H](Oc4ccc(cc4)CC4C(=O)NC(=O)[C@H]4C(=O)[C@H]31)C1[C@@H](C)C[C@@H](C)C[C@@]21C (stereo partly drawn) [GKK1032, reference compound] | effective in protecting neuron cells against apoptosis | successful in preventing H2O2 from being produced | significantly impaired |
